Results published in patent publication US20230364032A1, “USE OF 2-HOBA TO TREAT ATHEROSCLEROSIS” (Vanderbilt University, priority 2020, published 2023).
“And” between values parts separate entries of the source, which are not always exact repeats. Equal entries are not always repeated. “Also recorded” adds a separate entry of the source.

Experiments:
[1] = system: Apoe−/− macrophage foam cells; experiment: Capacity of HDL from treated mice to reduce macrophage cholesterol; type: cell-based, mouse; details: for efficiency of HDL at reducing cholesterol stores in Apoe−/− macrophage foam cells: HDL isolated from treated Ldlr−/− mice, 25 μg protein/ml, 24 h
Protocol: FIGS. 7A-7G show the effects of 2-HOBA on MDA-HDL adducts and HDL function. (7A) The levels or MDA adducts were measured by ELISA in HDL isolated from Ldlr mice treated as described in FIG. 1. Data are presented as mean±SEM (N=8 pet group), *** p<0.001, One-way ANOVA with Bonferroni's post hoc test. (7B) Western blots of apoAl and MDA-apoAl in HDL isolated from plasma by immunoprecipitation using primary anti-apoAl antibody. Ldlf mice were treated as described In FIG. 1 and apoAl and MDA-apoAl from Ldlr mice consuming a chow diet are included f0t comparison. (7C) Quantitation using lmageJ software of the mean density ratio (arbitrary units) of MDA-apoAl to apoAl detected by Western blotting (7B). (7D The HDL was isolated from the plasma of Ld/r-mice consuming a western diet for 16 weeks and treated with 2-HOBA or 4-HOBA or vehicle. Cholesterol enriched macrophages were incubated for 24 h with HDL (25 μg protein/ml). and the % reduction in cellular cholesterol content measured. Data presented as mean±SEM. N=7 per group, *p<0.05.**p<0.01, One-way ANOVA with Bonferroni's post hoc test (7E) The MDA adducts were measured by ELISA in HDL isolated from control or FH subjects before and after LDL apheresis. N=7 or 8, ***p<0.001, One-way ANOVA with Bonferroni's post hoc test. (7F) The MDA-Lysyl crosslink content in HDL from control or FH subjects (n=6 per group), p=0.02, Mann-Whitney test (7G) The capacity of HDL from control or FH subjects pre and post LDL apheresis (n=7 per group) to reduce the cholesterol content of apoE macrophages.
HDL was isolated from mouse plasma using HDL Purification Kit (Cell BioLabs, Inc.) following the manufacturer's protocol. Briefly, apoB containing lipoproteins and HDL were sequentially precipitated with dextran sulfate. The HDL was then resuspended and washed. After removing the dextran sulfate, the HDL was dialyzed against PBS. […] Cellular cholesterol was measured before and after incubation with HDL using an enzymatic cholesterol assay as described^61.

[2] = system: IL-1β, IL-6, TNF-α, SAA; experiment: Plasma/serum inflammatory cytokines by ELISA; type: in vivo, mouse
Protocol: The inflammatory cytokines including IL-1β (5A), IL-6 (5B), TNF-α (5C) and SAA (5D) were measured by ELISA in plasma from mice consuming a western diet for 16 weeks and treated with 2-HOBA, 4-HOBA, or vehicle. N=8 per group.*p<0.05, **p<0.01. ***p<0.001. One-way ANOVA with Bonferroni's post hoc test.
Serum IL-1β, IL-6 and TNF-α levels were measured by ELISA (R&D System). N=7 or 8 mice per group, N.S., One-way ANOVA with Bonferroni's post hoc test.

[3] = system: atherosclerotic lesions of Ldlr−/− mice; experiment: Lesion apoptosis (TUNEL) and efferocytosis; type: in vivo, mouse
Protocol: Cell apoptosis was induced as indicated and detected by fluorescent labeled Annexin V staining and quantitated by either Flow Cytometry (BD 5 LSRII) or counting Annexin V positive cells in images captured under a fluorescent microscope. The apoptotic cells in atherosclerotic lesions were measured by TUNEL staining of cross-sections of atherosclerotic proximal aortas as previously described^30. The TUNEL positive cells not associated with live macrophages were considered free apoptotic cells and macrophage-associated apoptotic cells were considered phagocytosed as a measure of lesion efferocytosis as previously described^30.

[4] = system: cyclooxygenase (COX); experiment: Urinary prostaglandin metabolites (LC/MS); type: in vivo, mouse
Protocol: The urine samples were collected in metabolic cages with 2 mice per cage after 12 weeks of treatment with 2-HOBA or water. The contents of PGE-M (20A), tetranor PGD-M (20B), 2,3-dinor-6-keto-PGF1 (20C) and 11-dehydro TxB2 (20D) were analyzed by LC/MS/MS. (20A-20D) Mean±SEM shown for each, N.S., Mann-Whitney Test.
Concentrations of PGE-M, tetranor PGD-M, 11-dehydro-TxB^2 (TxB-M) and PGI-M in urine were measured in the Eicosanoid Core Laboratory at Vanderbilt University Medical Center. Urine (1 mL) was acidified to pH 3 with HCl. [^2H4]-2,3-dinor-6-keto-PGF1a (internal standard for PGI-M quantification) and [^2H4]-11-dehydro-TxB2 were added, and the sample was treated with methyloxime HCl to convert analytes to the O-methyloxime derivative. The derivatized analytes were extracted using a C-18 Sep-Pak (Waters Corp. Milford, MA USA) and eluted with ethyl acetate as previously described^68. A [^2H6]—O-methyloxime PGE-M deuterated internal standard was then added for PGE-M and PGD-M quantification. The sample was dried under a stream of dry nitrogen at 37° C. and then reconstituted in 75 μL mobile phase A for LC/MS analysis.
LC was performed on a 2.0×50 mm, 1.7 μm particle Acquity BEH C18 column (Waters Corporation, Milford, MA, USA) using a Waters Acquity UPLC. […]
Urinary creatinine levels are measured using a test kit from Enzo Life Sciences. […]

SMILES: NCc1ccccc1O [2-HOBA, 2-hydroxybenzylamine]
- capacity of mouse HDL to reduce macrophage cholesterol stores ([1]; HDL from treated Ldlr−/− mice): increased; also recorded: enhanced capacity
- efficiency of HDL at reducing cholesterol stores in Apoe−/− macrophage foam cells ([1]; versus 4-HOBA treated mice): 1.7 fold
- efficiency of HDL at reducing cholesterol stores in Apoe−/− macrophage foam cells ([1]; versus vehicle treated mice): 2.2 fold
- cytokine levels (IL-1β, IL-6, TNF-α) ([2]; Ldlr−/− mice on chow diet, 1 g/L): no impact
- serum levels of IL-1β, IL-6, TNF-α, and serum amyloid A ([2]; Ldlr−/− mice, western diet 16 weeks, versus 4-HOBA or vehicle): decreased; also recorded: reduces
- efferocytosis and cell death in atherosclerotic lesions ([3]; Ldlr−/− mice): enhanced efferocytosis; also recorded: prevents cell death and increases efferocytosis
- reduction of number of TUNEL positive cells in proximal aortic lesions ([3]; Ldlr−/− mice, compared to 4-HOBA): 72.4%
- reduction of number of TUNEL positive cells in proximal aortic lesions ([3]; Ldlr−/− mice, compared to vehicle): 72% and 72.9%
- increase of TUNEL positive cells not associated with macrophages ([3]; lesions of mice treated with 4-HOBA versus 2-HOBA): 2.0 fold
- increase of TUNEL positive cells not associated with macrophages ([3]; lesions of mice treated with vehicle versus 2-HOBA): 1.9 fold
- levels of major urinary prostaglandin metabolites (2,3-dinor-6-keto-PGF1, 11-dehydro TxB2, PGE-M, PGD-M) ([4]; Ldlr−/− mice, compared to the vehicle control): no significant differences; also recorded: did not impact
- inhibition of COX in vivo ([4]; mice): not significantly inhibiting COX
